Assay results: ChEMBL document CHEMBL1131723, “Synthesis and structure-activity relationship of novel glycylcycline derivatives leading to the discovery of GAR-936” (1999)
Values after ≈ are worked out from the molar mass of the structure shown.

Tests used:
Assay type in all cases: functional
[1] = test system: Staphylococcus aureus; assay: In vitro antibacterial activity against Staphylococcus aureus UBMS 90-1 Tet M
[2] = test system: Escherichia coli; assay: In vitro antibacterial activity against Escherichia coli J3272 Tet D
[3] = test system: Escherichia coli; assay: In vitro antibacterial activity against Escherichia coli J3272 Tet C
[4] = test system: Staphylococcus aureus; assay: In vitro antibacterial activity against Staphylococcus aureus UBMS 90-3 sensitive
[5] = test system: Escherichia coli; assay: In vitro antibacterial activity against Escherichia coli PRP1 Tet A
[6] = test system: Staphylococcus aureus; assay: In vitro antibacterial activity against Staphylococcus aureus Smith sensitive
[7] = test system: Escherichia coli; assay: In vitro antibacterial activity against Escherichia coli UBMS 88-1 Tet B
[8] = test system: Escherichia coli; assay: In vitro antibacterial activity against Escherichia coli UBMS 90-5 sensitive
[9] = test system: Staphylococcus aureus; assay: In vitro antibacterial activity against Staphylococcus aureus UBMS 88-7 Tet K
[10] = test system: Enterococcus; assay: In vitro antibacterial activity against Enterococcus ATCC 29212
[11] = test system: Escherichia coli; assay: In vitro antibacterial activity against Escherichia coli UBMS 90-4 Tet M

Row | SMILES | MIC [1] [µg/mL] | MIC [2] [µg/mL] | MIC [3] [µg/mL] | MIC [4] [µg/mL] | MIC [5] [µg/mL] | MIC [6] [µg/mL] | MIC [7] [µg/mL] | MIC [8] [µg/mL] | MIC [9] [µg/mL] | MIC [10] [µg/mL] | MIC [11] [µg/mL]
1 | CN(C)c1cc(NC(=O)CN2CCCC2)c(O)c2c1CC1CC3[C@H](N(C)C)C(=O)C(C(N)=O)=C(O)[C@@]3(O)C(=O)C1=C2O (some centres undefined) | 0.12 (≈ 0.206 µM) | 0.12 (≈ 0.206 µM) | 0.25 (≈ 0.428 µM) | 0.12 (≈ 0.206 µM) | 0.5 (≈ 0.857 µM) | 0.12 (≈ 0.206 µM) | 0.25 (≈ 0.428 µM) | 0.25 (≈ 0.428 µM) | 0.5 (≈ 0.857 µM) | 0.12 (≈ 0.206 µM) | 0.25 (≈ 0.428 µM)
2 | CNCC(=O)Nc1cc(N(C)C)c2c(c1O)C(=O)C1=C(O)[C@]3(O)C(O)=C(C(N)=O)C(=O)[C@@H](N(C)C)C3CC1C2 (some centres undefined) | 1 (≈ 1.84 µM) | 0.5 (≈ 0.92 µM) | 8 (≈ 14.7 µM) | 0.5 (≈ 0.92 µM) | 16 (≈ 29.4 µM) | 0.5 (≈ 0.92 µM) | 1 (≈ 1.84 µM) | 1 (≈ 1.84 µM) | 16 (≈ 29.4 µM) | 0.5 (≈ 0.92 µM) | –
3 | CN(C)c1cc(NC(=O)Cn2ccnc2)c(O)c2c1CC1CC3[C@H](N(C)C)C(=O)C(C(N)=O)=C(O)[C@@]3(O)C(=O)C1=C2O (some centres undefined) | 32 (≈ 55.1 µM) | 32 (≈ 55.1 µM) | > 32 | 4 (≈ 6.89 µM) | > 32 | 4 (≈ 6.89 µM) | > 32 | > 32 | 32 (≈ 55.1 µM) | 4 (≈ 6.89 µM) | > 32
4 | CCCNCC(=O)Nc1cc(N(C)C)c2c(c1O)C(=O)C1=C(O)[C@]3(O)C(O)=C(C(N)=O)C(=O)[C@@H](N(C)C)C3CC1C2 (some centres undefined) | 0.5 (≈ 0.875 µM) | 0.12 (≈ 0.21 µM) | 0.5 (≈ 0.875 µM) | 0.25 (≈ 0.437 µM) | 2 (≈ 3.5 µM) | 0.25 (≈ 0.437 µM) | 0.5 (≈ 0.875 µM) | 0.5 (≈ 0.875 µM) | 2 (≈ 3.5 µM) | 0.25 (≈ 0.437 µM) | 0.25 (≈ 0.437 µM)
5 | CN(C)c1ccc(O)c2c1C[C@H]1C[C@H]3[C@H](N(C)C)C(O)=C(C(N)=O)C(=O)[C@@]3(O)C(O)=C1C2=O [MINOCYCLINE] | 8 (≈ 17.5 µM) | 4 (≈ 8.74 µM) | 32 (≈ 69.9 µM) | 2 (≈ 4.37 µM) | > 32 | 2 (≈ 4.37 µM) | > 32 | 16 (≈ 35 µM) | 16 (≈ 35 µM) | 4 (≈ 8.74 µM) | 16 (≈ 35 µM)
6 | CN(C)[C@@H]1C(O)=C(C(N)=O)C(=O)[C@@]2(O)C(O)=C3C(=O)c4c(O)cccc4[C@@](C)(O)[C@H]3C[C@@H]12 [TETRACYCLINE] | > 32 | 8 (≈ 18 µM) | > 32 | 0.25 (≈ 0.563 µM) | 32 (≈ 72 µM) | 0.25 (≈ 0.563 µM) | > 32 | 1 (≈ 2.25 µM) | > 32 | 16 (≈ 36 µM) | > 32
7 | CN(C)c1cc(NC(=O)CNC(C)(C)C)c(O)c2c1C[C@H]1C[C@H]3[C@H](N(C)C)C(O)=C(C(N)=O)C(=O)[C@@]3(O)C(O)=C1C2=O [TIGECYCLINE] | 0.12 (≈ 0.205 µM) | 0.12 (≈ 0.205 µM) | 0.25 (≈ 0.427 µM) | 0.25 (≈ 0.427 µM) | 0.25 (≈ 0.427 µM) | 0.25 (≈ 0.427 µM) | 0.5 (≈ 0.854 µM) | 0.25 (≈ 0.427 µM) | 0.5 (≈ 0.854 µM) | 0.12 (≈ 0.205 µM) | 0.12 (≈ 0.205 µM)

Continued by falling MIC [1], values first:

Row | MIC [1] [µg/mL] | MIC [2] [µg/mL] | MIC [3] [µg/mL] | MIC [4] [µg/mL] | MIC [5] [µg/mL] | MIC [6] [µg/mL] | MIC [7] [µg/mL] | MIC [8] [µg/mL] | MIC [9] [µg/mL] | MIC [10] [µg/mL] | MIC [11] [µg/mL] | SMILES
8 | 4 (≈ 6.67 µM) | 32 (≈ 53.4 µM) | > 32 | 2 (≈ 3.34 µM) | > 32 | 2 (≈ 3.34 µM) | > 32 | > 32 | 32 (≈ 53.4 µM) | 2 (≈ 3.34 µM) | – | CN(C)c1cc(NC(=O)CN2CCOCC2)c(O)c2c1CC1CC3[C@H](N(C)C)C(=O)C(C(N)=O)=C(O)[C@@]3(O)C(=O)C1=C2O (some centres undefined)
9 | 1 (≈ 1.69 µM) | 32 (≈ 53.9 µM) | > 32 | 0.5 (≈ 0.843 µM) | > 32 | 0.5 (≈ 0.843 µM) | > 32 | 16 (≈ 27 µM) | 2 (≈ 3.37 µM) | 0.5 (≈ 0.843 µM) | – | CN(C)c1cc(NC(=O)CBr)c(O)c2c1CC1CC3[C@H](N(C)C)C(=O)C(C(N)=O)=C(O)[C@@]3(O)C(=O)C1=C2O (some centres undefined)
10 | 0.25 (≈ 0.448 µM) | 0.12 (≈ 0.215 µM) | 1 (≈ 1.79 µM) | 0.03 (≈ 0.0538 µM) | 1 (≈ 1.79 µM) | 0.06 (≈ 0.108 µM) | 0.25 (≈ 0.448 µM) | 0.25 (≈ 0.448 µM) | 0.25 (≈ 0.448 µM) | 0.06 (≈ 0.108 µM) | 0.25 (≈ 0.448 µM) | CN(C)CC(=O)Nc1cc(N(C)C)c2c(c1O)C(=O)C1=C(O)[C@]3(O)C(O)=C(C(N)=O)C(=O)[C@@H](N(C)C)C3CC1C2 (some centres undefined)
11 | 0.25 (≈ 0.439 µM) | 0.12 (≈ 0.211 µM) | 0.5 (≈ 0.878 µM) | 0.12 (≈ 0.211 µM) | 1 (≈ 1.76 µM) | 0.25 (≈ 0.439 µM) | 0.5 (≈ 0.878 µM) | 0.25 (≈ 0.439 µM) | 2 (≈ 3.51 µM) | 0.25 (≈ 0.439 µM) | 0.25 (≈ 0.439 µM) | CN(C)c1cc(NC(=O)CN2CCC2)c(O)c2c1CC1CC3[C@H](N(C)C)C(=O)C(C(N)=O)=C(O)[C@@]3(O)C(=O)C1=C2O (some centres undefined)
12 | 0.25 (≈ 0.418 µM) | 0.12 (≈ 0.201 µM) | 0.25 (≈ 0.418 µM) | 0.12 (≈ 0.201 µM) | 1 (≈ 1.67 µM) | 0.25 (≈ 0.418 µM) | 0.25 (≈ 0.418 µM) | 0.25 (≈ 0.418 µM) | 2 (≈ 3.35 µM) | 0.12 (≈ 0.201 µM) | 0.25 (≈ 0.418 µM) | CN(C)c1cc(NC(=O)CNC2CCCC2)c(O)c2c1CC1CC3[C@H](N(C)C)C(=O)C(C(N)=O)=C(O)[C@@]3(O)C(=O)C1=C2O (some centres undefined)
